Test results from ChEMBL document CHEMBL1201862, “PubChem BioAssay data set” (2004).
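Interpolation was linear, between the two tested concentrations surrounding the appropriate level; five concentrations were tested over 48 hours in 96-well plates. Abbreviation: GI50, concentration required for 50% inhibition of growth.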 Active and inactive are the calls of the source. Rule as the data show it: active = GI50 up to about 1.1 µM and inactive = higher.

Tests used:
Experiment in all cases: NCI anticancer screen, dose series, 48 h
A549 = test system: A549
ACHN = test system: ACHN
DU-145 = test system: DU-145
HCT-116 = test system: HCT-116
HOP-62 = test system: HOP-62
Hs-578T = test system: Hs-578T
K562 = test system: K562
MDA-N = test system: MDA-N
NCI-H522 = test system: NCI-H522
NCI/ADR-RES = test system: NCI/ADR-RES
OVCAR-4 = test system: OVCAR-4
OVCAR-5 = test system: OVCAR-5
OVCAR-8 = test system: OVCAR-8
PC-3 = test system: PC-3
SW-620 = test system: SW-620
BT-549 = test system: BT-549
HOP-92 = test system: HOP-92
UACC-257 = test system: UACC-257
DMS-114 = test system: DMS-114
DLD-1 = test system: DLD-1

Measured: GI50

N#CCCC1C(C#N)C2(Cl)CC1(Cl)C(Cl)=C2Cl (configuration not stated)
inactive: A549 > 10 µM | ACHN > 10 µM | DU-145 > 10 µM | HCT-116 > 10 µM | HOP-62 > 10 µM | Hs-578T > 10 µM | K562 > 10 µM | MDA-N > 10 µM | NCI-H522 3.59 µM | NCI/ADR-RES > 10 µM | OVCAR-4 > 10 µM | OVCAR-5 > 10 µM | OVCAR-8 > 10 µM | PC-3 > 10 µM | SW-620 > 10 µM

Cc1ccc(/N=N/NCCCCN/N=N/c2ccc(C)cc2)cc1
inactive: A549 6.04 µM | BT-549 > 100 µM | DU-145 32 µM | HCT-116 65.8 µM | HOP-62 47.9 µM | HOP-92 25.3 µM | Hs-578T > 100 µM | K562 > 100 µM | MDA-N 16.5 µM | NCI/ADR-RES > 100 µM | OVCAR-4 > 100 µM | OVCAR-5 > 100 µM | OVCAR-8 27.4 µM | PC-3 4.22 µM | SW-620 > 100 µM | UACC-257 > 100 µM

Cc1ccc(Cl)cc1/N=N/C(=O)NNc1cc(Cl)ccc1C
inactive: BT-549 18.2 µM | DU-145 21.4 µM | HCT-116 25.4 µM | HOP-62 10.8 µM | HOP-92 15.5 µM | Hs-578T 23.8 µM | K562 24.2 µM | MDA-N 31.8 µM | NCI-H522 13.1 µM | NCI/ADR-RES 19.9 µM | OVCAR-5 15.8 µM | PC-3 10.1 µM

CC1CN=C(NCc2ccccc2)S1 (configuration not stated)
inactive: ACHN > 100 µM | BT-549 > 100 µM | DU-145 > 100 µM | HCT-116 > 100 µM | HOP-62 > 100 µM | Hs-578T > 100 µM | K562 48.2 µM | MDA-N 28.4 µM | NCI-H522 > 100 µM | OVCAR-5 > 100 µM | UACC-257 > 100 µM

O=c1n(CC2CO2)c2ccccc2n1CC1CS1 (configuration not stated)
inactive: A549 > 100 µM | ACHN > 100 µM | DMS-114 77.8 µM | HCT-116 67.3 µM | HOP-62 > 100 µM | HOP-92 > 100 µM | K562 > 100 µM | NCI-H522 > 100 µM | OVCAR-4 > 100 µM | OVCAR-5 > 100 µM | OVCAR-8 > 100 µM | SW-620 > 100 µM

CCC1=NC(C(F)(F)F)(C(F)(F)F)N=C(N2CCOCC2)O1
inactive: A549 > 100 µM | ACHN > 100 µM | DU-145 > 100 µM | HCT-116 > 100 µM | HOP-92 > 100 µM | Hs-578T > 100 µM | K562 > 100 µM | MDA-N > 100 µM | NCI-H522 > 100 µM | NCI/ADR-RES > 100 µM | OVCAR-4 > 100 µM | OVCAR-5 > 100 µM | OVCAR-8 > 100 µM | PC-3 > 100 µM | SW-620 > 100 µM | UACC-257 > 100 µM

COC(C/C=C\C=C\CC/C=C/CC(C)/C=C/C(=C\C(=O)O)CC(=O)O)/C(C)=C\C=C(/C)C(=O)O (configuration not stated)
inactive: A549 > 100 µM | BT-549 > 100 µM | DU-145 > 100 µM | HCT-116 > 100 µM | HOP-62 > 100 µM | HOP-92 > 100 µM | Hs-578T 61.7 µM | MDA-N > 100 µM | NCI-H522 > 100 µM | OVCAR-4 > 100 µM | OVCAR-5 > 100 µM | PC-3 > 100 µM | SW-620 > 100 µM | UACC-257 > 100 µM

COC(c1ccc(C(C)(C)C)cc1)(c1ccc(C(C)(C)C)cc1)c1cc(C(O)(c2cc(C(OC)(c3ccc(C(C)(C)C)cc3)c3ccc(C(C)(C)C)cc3)c(C)cc2C)c2cc(C(OC)(c3ccc(C(C)(C)C)cc3)c3ccc(C(C)(C)C)cc3)c(C)cc2C)c(C)cc1C
inactive: A549 > 100 µM | BT-549 > 100 µM | DU-145 > 100 µM | HCT-116 > 100 µM | HOP-62 > 100 µM | HOP-92 > 100 µM | Hs-578T > 100 µM | K562 > 100 µM | MDA-N > 100 µM | NCI/ADR-RES > 100 µM | OVCAR-4 > 100 µM | OVCAR-5 > 100 µM | OVCAR-8 > 100 µM | PC-3 > 100 µM | SW-620 > 100 µM | UACC-257 > 100 µM

CC1(C)CCc2cc3c(-c4ccccc4)cc(=O)oc3cc2O1
inactive: ACHN > 100 µM | DLD-1 > 100 µM | DMS-114 > 100 µM | HOP-92 21.1 µM | K562 > 100 µM | NCI-H522 > 100 µM | OVCAR-8 > 100 µM | SW-620 > 100 µM

CCOC(=O)c1csc(NC(=O)CN(C)C)n1
inactive: A549 > 100 µM | ACHN > 100 µM | DU-145 > 100 µM | HOP-62 > 100 µM | HOP-92 > 100 µM | Hs-578T > 100 µM | K562 > 100 µM | MDA-N > 100 µM | NCI/ADR-RES > 100 µM | OVCAR-4 > 100 µM | OVCAR-5 > 100 µM | OVCAR-8 > 100 µM | PC-3 > 100 µM | SW-620 > 100 µM | UACC-257 > 100 µM

C=C(C)C1CC2=C(O1)C(=O)c1ccccc1C2=O (stereo not drawn) [DEHYDROISO-ALPHA-LAPACHONE]
inactive: A549 21 µM | DLD-1 20.8 µM | DMS-114 16 µM | HOP-62 19.6 µM | HOP-92 16.3 µM | K562 18.6 µM | NCI-H522 20.7 µM | OVCAR-4 11.3 µM | OVCAR-8 17.3 µM | SW-620 23.6 µM | UACC-257 13.3 µM

Cc1cn(C2CC(O)C(Cn3nncc3Cn3ncc(=O)[nH]c3=O)O2)c(=O)[nH]c1=O (configuration not stated)
inactive: A549 > 100 µM | ACHN > 100 µM | BT-549 > 100 µM | DU-145 > 100 µM | HCT-116 > 100 µM | HOP-62 > 100 µM | HOP-92 > 100 µM | Hs-578T > 100 µM | MDA-N > 100 µM | NCI/ADR-RES > 100 µM | OVCAR-4 > 100 µM | OVCAR-5 > 100 µM | OVCAR-8 > 100 µM | PC-3 > 100 µM | SW-620 > 100 µM | UACC-257 > 100 µM

O=c1c2ccccc2[nH]c2cc(O)cc(O)c12
inactive: A549 92.5 µM | ACHN 26.4 µM | HCT-116 55.6 µM | K562 66.4 µM | NCI-H522 16.9 µM | OVCAR-4 > 100 µM | OVCAR-8 30.6 µM | UACC-257 45 µM

CCCCOC(=O)CN1C(=O)c2ccccc2C1=O
inactive: A549 > 100 µM | ACHN > 100 µM | DLD-1 > 100 µM | HCT-116 > 100 µM | HOP-62 > 100 µM | HOP-92 > 100 µM | NCI-H522 > 100 µM | OVCAR-4 > 100 µM | OVCAR-5 > 100 µM | OVCAR-8 > 100 µM | SW-620 > 100 µM | UACC-257 > 100 µM
